Test results from patent US20240009137A1, “ORAL THERAPEUTIC DELIVERY” (ROYAL MELBOURNE INSTITUTE OF TECHNOLOGY, priority 2020, published 2024).
Where “and” joins values, the source holds several entries; their conditions need not be identical. Equal values may be shown once. Blank lines part the entries; values can stand above or below the compound they belong to.

What was measured:
[1] = Fluorescence recovery after photobleaching (FRAP), diffusion coefficient; assay type: physicochemical
Experimental: FRAP was performed on a Nikon confocal microscope. […] A bleaching and background region of interest (ROI) was used to selectively photobleach an area of the cubic phase and the fluorescence recovery curve was recorded with time. The excitation/emission wavelengths used were 553/627 nm for the octadecyl rhodamine B chloride. […] […] The open source Matlab code frap_analysis_2p5 was used to determine diffusion coefficients μ from FRAP data.

[2] = measured using NMR in a previous study; cited from earlier work
in vivo = experiment: in vivo; parameters: species or system Sprague Dawley rats; conditions: male, Sprague-Dawley, rat, 1 mg/kg
Experimental: (§1) Four male Sprague Dawley rats were used as controls. Each rat was anaesthetised with isoflurane followed by preparation of the saphenous vein. The rats were given 1 mg/kg of meropenem via SC injection, immediately following this they were placed on a heat-mat until they regained consciousness, before being housed in pairs in boxes. Blood collection (150 μl) was taken via the saphenous vein at 0, 30-, 70-, 120-, 180-, 240- and 360-mins post-injection. The blood concentration of the protein in the blood was tested using the relevant ELISA kit for meropenem.
(§2) Eight male Sprague Dawley rats were used. Each rat was anaesthetised with isoflurane followed by preparation of the saphenous vein and the first blood collection (150 μl). An enteric capsule with a thick polymer coating of approximately 160 μm containing 1 mg/kg of meropenem encapsulated in MO lipid cubic phase was then introduced via oral gavage into the rat stomach. Immediately following this they were placed on a heat-mat until they regained consciousness, before being housed in pairs. Blood collection (150 μl) was taken via the saphenous vein at 0, 35-, 50-, 120-, 180-, 240- and 360-mins post-injection.
(§3) All data are analysed on a Clariostar Plate Reader to determine concentration against a standard curve for the relevant drug.
(§4) Concentrations provided in FIGS. 10-13 are the measured concentration of the drug in the blood plasma (determined using specific Elisa kits) and are in units of ng/ml. The initial drug concentration measured at the 0 time point has been set to zero in each case and other data scaled relative to this.

[3] = Vancomycin in blood plasma (ELISA) after SC injection or oral capsule; assay type: in vivo, Sprague Dawley rats
Experimental: as §1, with “given 15” for “given 1”, “of vancomycin” for “of meropenem”, “for each of the proteins.” for “for meropenem.”
as §2, with “containing 15” for “containing 1”, “of vancomycin” for “of meropenem”
as §3, §4

[4] = tested on: blood glucose of diabetic Sprague Dawley rats; experiment: Blood glucose levels in STZ-induced diabetic rats after insulin by SC injection or oral capsule; assay type: in vivo; conditions: for time over which BG levels continued to decrease: 1 IU SC injection; for Percentage of SC injection (%), efficacy of oral delivery: MO cubic phase
Experimental: 14 Sprague Dawley rats were used in this trial. One week before each phase started, all rats were given isoflurane until unconscious. Each rat was then injected intravenously in the tail with 60 mg/kg of streptozotocin (STZ) in a sodium citrate buffer. All rats were then housed in pairs and blood glucose was monitored 3 times per day over 48 hours. The induction of diabetes was confirmed when the blood glucose level was >14 mmol/L in the morning.
The rats were then housed in pairs in two boxes. Blood collection was taken at 5-, 360-, and 1440-minutes post-injection, and the BG level tested at each time point.
(§5) Four Sprague Dawley rats were used in Phase 1 and four in Phase 2. Each was initially given isoflurane until unconscious. This was followed by preparation of the saphenous vein and the baseline basal BG was tested. […] Blood collection (10 μl) was taken at 15-, 30-, 60-, 120-, and 360-minutes post-injection. BG testing was performed immediately at each time point using an Accu Chek BG monitor and strips.
as §5, with “at” for “at 15-,”, “120-, 360-,” for “120-,”, “465-minutes” for “360-minutes”, “strips. One rat didn't develop diabetes and one rat had kidney problems. In each case, the AWO (Animal Welfare Officer) was consulted and both rats were removed from the trial.” for “strips.”
Four Sprague Dawley rats were used in this part of the trial. Each was initially given isoflurane until unconscious. This was followed by preparation of the saphenous vein and the first blood collection (10 μl) and BG testing. […] Blood collection (10 μl) was taken at 75-, 120-, 180-, 240-, 300- and 360- minutes, and BG testing was performed at each time point using an Accu Chek BG monitor and strips.
(§6) Two Sprague Dawley rats were used in this part of the trial. Each was initially given isoflurane until unconscious. This was followed by preparation of the saphenous vein and the first blood collection (10 μl) and BG testing. […] Immediately following this they were placed on a heat-mat until they regained consciousness, before being housed in pairs in boxes. Blood collection (10 μl) was taken at 105-, 135-, 165-, 210-, 345- and 460- minutes, and BG testing was performed at each time point using an Accu Chek BG monitor and strips.
as §6, with “Four” for “Two”, “45-, 75-, 120-, 160-, 220-, 260-, 300-” for “105-, 135-, 165-, 210-, 345-”, “360-” for “460-”
as §6, with “30-, 60-, 80-, 125-, 180-, 280-, 340-, 400-” for “105-, 135-, 165-, 210-, 345-”

[5] = Human growth hormone in blood plasma (ELISA) after SC injection or oral capsule; assay type: in vivo, Sprague Dawley rats
Experimental: as §1, with “human growth hormone” for “meropenem”, “human growth hormone.” for “meropenem.”
as §2, with “the human growth hormone” for “meropenem”, “120-,180-,” for “120-, 180-,”, “post-injection” for “post-injection.”
as §3, §4

[6] = oral enteric capsule, MO cubic phase, 15 mg/kg
[7] = 1 IU oral, MO cubic phase in enteric capsule T=3, Phase 1, Rats 2-4
[8] = oral enteric capsule vs SC, 1 mg/kg
[9] = oral enteric capsule, MO cubic phase, 1 mg/kg

Diffusion Coefficient ([1]; in MO QII^D bulk cubic phase (insulin: FITC labelled, 5 mg/ml)): 0.97 ×10^−6 cm^2 s^−1 | Diffusion Coefficient ([1]; in PT QII^D bulk cubic phase (insulin: FITC labelled, 5 mg/ml)): 0.59 ×10^−6 cm^2 s^−1
Compound: CCCCCCCCCCCCCCCCCCOC(=O)c1ccccc1-c1c2ccc(=[N+](CC)CC)cc-2oc2cc(N(CC)CC)ccc12.[Cl-] [Octadecyl rhodamine B chloride, octadecyl rhodamine B chloride]

Compound: CC(C)CCCC(C)CCCC(C)CCCC(C)(O)C(O)CO (centres unmarked) [PT, phytantriol]
lipid self-diffusion coefficient [2]: 0.3 ×10^−6 cm^2 s^−1

bioavailability (in vivo): 58% | maximum drug plasma concentration as % of that following SC injection (in vivo): 55% | maximum drug concentration in blood plasma (in vivo; po): 19 to 23 ng/mL | time by which baseline drug concentrations are reached (in vivo; po): ≤ 180 min | time of maximum plasma concentration (in vivo; po): 50 min | maximum drug concentration in blood plasma (in vivo; sc): 37 to 40 ng/mL | time by which baseline values are reached (in vivo; sc): ≤ 240 min | time of maximum plasma concentration (in vivo; sc): 30 min
Compound: C[C@@H](O)[C@H]1C(=O)N2C(C(=O)O)=C(S[C@@H]3CN[C@H](C(=O)N(C)C)C3)[C@H](C)[C@H]12 [meropenem]

Compound: CN[C@H](CC(C)C)C(=O)N[C@H]1C(=O)N[C@@H](CC(N)=O)C(=O)N[C@H]2C(=O)N[C@H]3C(=O)N[C@H](C(=O)N[C@H](C(=O)O)c4cc(O)cc(O)c4-c4cc3ccc4O)[C@H](O)c3ccc(c(Cl)c3)Oc3cc2cc(c3O[C@@H]2O[C@H](CO)[C@@H](O)[C@H](O)[C@H]2O[C@H]2C[C@](C)(N)[C@H](O)[C@H](C)O2)Oc2ccc(cc2Cl)[C@H]1O [vancomycin]
time by which baseline values are reached ([3]; SC injection 15 mg/kg): ≤ 180 min | time of maximum plasma concentration ([3]; SC injection 15 mg/kg): 30 min | maximum drug concentration in blood plasma ([3]; SC injection 15 mg/kg, four rats): approximately 1500 ng/ml | bioavailability ([3]; male, Sprague-Dawley, rat, plasma, oral enteric capsule vs SC, 15 mg/kg, read-out: overall bioavailability as % of that following SC injection): 73.9% | maximum drug concentration in blood plasma ([3]; oral enteric capsule (approx. 160 μm coating), MO cubic phase, 15 mg/kg, range over rats): 790 to 960 ng/mL | maximum drug plasma concentration as % of that following SC injection ([3]; oral enteric capsule vs SC, 15 mg/kg): 57% | time by which baseline drug concentrations are reached [3, 6]: ≤ 180 min | time of maximum plasma concentration [3, 6]: 50 min

Compound: Actrapid insulin: fast acting insulin (Actrapid, Novo Nordisk), given SC or in MO cubic phase within enteric capsule
time over which BG levels continued to decrease ([4]; Phase 1): approximately 110 mins | time over which BG levels continued to decrease ([4]; Phase 2): approximately 120 mins | lead time: BG levels continued to increase after oral administration ([4]; 1 IU oral, MO cubic phase in enteric capsule T=1, Phase 2, Rats 5-8): approximately 60 mins | overall decrease in BG ([4]; 1 IU oral, MO cubic phase in enteric capsule T=1, Phase 2, individual Rats 5, 6, 7, 8 in this order): 6.2 mmol/L and 8.7 mmol/L and 11.4 mmol/L and 4.6 mmol/L | lead time: BG levels continued to increase after oral administration [4, 7]: 100 to 110 min | time period over which BG levels decreased [4, 7]: 70 to 180 min | overall decrease in BG ([4]; 1 IU oral, MO cubic phase in enteric capsule T=3, Phase 1, individual Rats 2, 3, 4 in this order): 3.6 mmol/L and 3.1 mmol/L and 3.4 mmol/L | time BG levels remained below 14 mmol/L ([4]; 15 IU by SC injection, pre-trial period, diabetic rats): approximately 450 minutes | response of blood glucose to oral administration ([4]; Rat 1, perforated enterically coated capsule shell with lipid cubic phase, 1 IU, Phase 1 (comparative)): not pronounced | Percentage of SC injection (%) ([4]; SC injection, 1 IU (reference)): 100% | Percentage of SC injection (%), efficacy of oral delivery ([4]; oral capsule T = 1 (thinner coating), 1 IU, listed as Fast Acting Insulin): 93.1% | Percentage of SC injection (%), efficacy of oral delivery ([4]; oral capsule T = 1 (thinner coating), 1 IU, listed as fast-acting insulin): 93% | Percentage of SC injection (%), efficacy of oral delivery ([4]; oral capsule T = 3 (thicker coating), 1 IU, listed as Fast Acting Insulin): 56.1% | Percentage of SC injection (%), efficacy of oral delivery ([4]; oral capsule T = 3 (thicker coating), 1 IU, listed as fast-acting insulin): 56%

Compound: human growth hormone: Human Growth Hormone (MyBioSource), given SC or in MO cubic phase within enteric capsule
time at which total amount of protein delivered (AUC) reaches a plateau ([5]; SC injection 1 mg/kg): approximately 180 min | time by which baseline drug concentrations are reached ([5]; SC injection 1 mg/kg): ≤ 300 min | time of maximum plasma concentration ([5]; SC injection 1 mg/kg): 60 min | maximum drug concentration in blood plasma ([5]; SC injection 1 mg/kg, range over four rats): 20 to 32 ng/mL | maximum drug concentration in blood plasma ([5]; oral enteric capsule (approx. 160 μm coating), MO cubic phase, 1 mg/kg, range over rats): 19 to 24 ng/mL | maximum drug plasma concentration as % of that following SC injection [5, 8]: 81% | overall bioavailability as % of that following SC injection [5, 8]: 87.2% | lag period before total protein delivered starts to increase [5, 9]: 30 min | time at which total protein delivered (AUC) reaches a plateau [5, 9]: around 240 mins | time by which baseline drug concentrations are reached [5, 9]: ≤ 240 min | time of maximum plasma concentration [5, 9]: 50 min
